Measurements: paper PMC12844237, “A Novel Quinolone JH62 (E-2-(Tridec-4-en-1-yl)-quinolin-4(1H)-one) from Pseudomonas aeruginosa Exhibits Potent Anticancer Activity” (Microorganisms, 2025)

Key:
[1] = test system: THLE-2: human liver epithelial cell lines; assay: WST-1 cell viability, THLE-2; assay type: cell-based; conditions: THLE-2, non-cancer cell line
Source text: Different cells were utilized as follows: MEF: murine embryonic fibroblast (RRID: CVCL_L690); AML12: mouse liver cell lines (RRID: CVCL_0140); WI-38: human lung fibroblast cell lines (RRID: CVCL_0579); THLE-2: human liver epithelial cell lines (RRID: CVCL_3803); A549: human lung cancer cell lines (RRID: CVCL_0023); HEPG2: human liver cancer cell lines (RRID: CVCL_0027); HEP3B: human hepatoma cell lines (RRID: CVCL_0326); BxPC3: human pancreatic cancer cell lines (RRID: CVCL_0186); U87: human primary glioblastoma cell lines (RRID: CVCL_0022); DU145: human prostate cancer cell lines (RRID: CVCL_0105); MCF7: human breast cancer cell lines (RRID: CVCL_0031); HeLa: human cervical cancer cell lines (RRID: CVCL_0030); HCT116: human colon cancer cell lines (RRID: CVCL_0291). Cells were maintained in Dulbecco’s modified Eagle’s medium (DMEM, Gibco) supplemented with L-glutamine (Lonza) (2 mM), 10% fetal bovine serum (FBS, Hyclone), 1 × non-essential amino acids, and sodium pyruvate (1 mM). THLE-2 cells were maintained in THLE-2 Cell Complete Medium (Zhong Qiao Xin Zhou, Shanghai, China). Cells were incubated at 37 °C in a humidified incubator with 5% CO2. […]
Cell viability was assessed using the WST-1 assay, based on a previously reported method with slight modifications. […] Absorbance at OD450 was measured using a microplate reader (Synergy H1; BioTek Instruments, Winooski, VT, USA).

[2] = test system: A549: human lung cancer cell lines; assay: WST-1 cell viability, A549; assay type: cell-based; conditions: for IC50: WST-1; for reduced viability: 24 h
Source text: Different cells were utilized as follows: MEF: murine embryonic fibroblast (RRID: CVCL_L690); AML12: mouse liver cell lines (RRID: CVCL_0140); WI-38: human lung fibroblast cell lines (RRID: CVCL_0579); THLE-2: human liver epithelial cell lines (RRID: CVCL_3803); A549: human lung cancer cell lines (RRID: CVCL_0023); HEPG2: human liver cancer cell lines (RRID: CVCL_0027); HEP3B: human hepatoma cell lines (RRID: CVCL_0326); BxPC3: human pancreatic cancer cell lines (RRID: CVCL_0186); U87: human primary glioblastoma cell lines (RRID: CVCL_0022); DU145: human prostate cancer cell lines (RRID: CVCL_0105); MCF7: human breast cancer cell lines (RRID: CVCL_0031); HeLa: human cervical cancer cell lines (RRID: CVCL_0030); HCT116: human colon cancer cell lines (RRID: CVCL_0291). Cells were maintained in Dulbecco’s modified Eagle’s medium (DMEM, Gibco) supplemented with L-glutamine (Lonza) (2 mM), 10% fetal bovine serum (FBS, Hyclone), 1 × non-essential amino acids, and sodium pyruvate (1 mM). THLE-2 cells were maintained in THLE-2 Cell Complete Medium (Zhong Qiao Xin Zhou, Shanghai, China). Cells were incubated at 37 °C in a humidified incubator with 5% CO2. A549 cells were previously stored in the lab and other cell lines were a gift from Haishan Wang’s lab (Institute of Molecular and Cell Biology, Singapore). All cell lines were confirmed to be contamination-free.
Cell viability was assessed using the WST-1 assay, based on a previously reported method with slight modifications. Briefly, cells were seeded at 1 × 10^4 cells per well in 96-well plates and then treated with different doses of JH62 or DOX for 0–72 h. The cells used included non-cancer cells (MEF, AML12, WI-38, and THLE-2) and cancer cells (A549, HEPG2, HEP3B, BxPC3, U87, DU145, MCF7, HeLa, and HCT116). The WST-1 reagent (Roche, Shanghai, China) was added to each well (10% vol/vol final concentration), followed by incubation for 3 h at 37 °C. Absorbance at OD450 was measured using a microplate reader (Synergy H1; BioTek Instruments, Winooski, VT, USA).

With `CCCCCCCC/C=C/CCCc1cc(=O)c2ccccc2[nH]1` [JH62, E-2-(tridec-4-en-1-yl)-quinolin-4(1H)-one] the IC50 [1] was 27.3 ± 4.9 µM, the IC50 ([2]; A549 (lung) cancer cell line) was 14.8 ± 0.1 µM and the reduced viability ([2]; A549, 12.5 μM) was 20%. For the same compound, the viability decreased ([2]; A549, 12.5 μM, 32 h) was 32%, the viability decreased ([2]; A549, 12.5 μM, 48 h) was 19% and the reduced viability ([2]; A549, 25 μM) was 48%. It also gave a viability decreased ([2]; A549, 25 μM, 32 h) of 65%, a viability decreased ([2]; A549, 25 μM, 48 h) of 74% and a reduced viability ([2]; A549, 50 μM) of 78%. The viability decreased ([2]; A549, 50 μM, 32 h) was 84%, the viability decreased ([2]; A549, 50 μM, 48 h) was 92% and the IC50 ([2]; Homo sapiens, A549, A549 (lung) cancer cell line) was 15 µM.
